Experimental data: patent US5672603A, “Apoptosis regulating composition” (Otsuka Pharmaceutical Co., Ltd., priority 1991, dated 1997)

What was measured:
[1] = test system: human adult T cell leukemic cells (5S); assay: ATL-infected cell growth inhibition test: ATLV-infected cells; type: cell-based; details: for Number of ATLV-infected cells: 4 days, control 6.5
Description: Human adult T cell leukemia cells (5S) were used to prepare a suspension of 1×10^5 cells/ml in RPMI-1640 medium (Gibco) supplemented 10% fetal calf serum (FCS, Gibco) for use as ATL virus-infected cells.
Compound 1 was dissolved in hydrochloric acid, diluted with the same medium as above, neutralized with 2N NaOH and adjusted to concentrations of 1 μg/ml, 10 μg/ml and 30 μg/ml.
The cells prepared in (a) and (b) above were respectively placed in wells of a 24-well culture plate (Nunc), followed by addition of the test compound prepared in (c) (final concentration: 1 μg/ml, 10 μg/ml or 30 μg/ml), and cultured at 37° C. in a 5% carbon dioxide incubator for 4 days. As a control, the medium without addition of the test compound was used. After completion of incubation, the cell suspension in each well was taken for determination of viable cells.

[2] = test system: CMK cells (platelet-associated antigen, glycoprotein IIb/IIIa); assay: Expression of platelet-associated antigen of CMK cells (Plt-1 antibody); type: cell-based, human; details: 30 μg/ml
Description: Compound 1 was dissolved in 1N hydrochloric acid and diluted with fetal calf serum (FCS, Gibco) to give a 1 mg/ml solution. This solution was added to RPMI-1640 medium (Flow Laboratories) supplemented 10% FCS and the mixture was neutralized with 1N NaOH and adjusted to a concentration of 30 μg/ml before use.
CMK cells were established by T. Sato et al. from patients with acute megakaryocytic leukemia. They are known to react with anti-platelet antibodies (anti-glycoprotein IIb/IIIa antibody, anti-glycoprotein Ib antibody and Plt-1 antibody). Moreover, it has mega-karyocyte-like properties, such as formation of α granules and a demarcation membrane in the cytoplasm. Therefore, these cells have been used for the analysis of the growth and differentiation of megakaryocytes [Sato, T., et al., Exp. Hematol., 15, 495 (1987); Sunami, S., et al., Blood, 70., 368 (1987); Komatsu, N., et al., Blood, 74(1), 42-48 (1989); Fuse, A., et al., British J. Haematology, 77, 32-36 (1991); Acta Haematologia Japonica 53(2), 294-295, 317-318 (1990)].
CMK cells were supplied by Dr. Takelruki Sato at the Department of Pediatrics, Chiba University School of Medicine. The cells, 5×10^4 cells/ml, were cultured in RPMI-1640 medium supplemented 10% FCS and subcultured every four days.
CMK cells, 1×10^5 cells/ml, were incubated in 10% FCS-added RPMI-1640 medium, containing 30 μg/ml of Compound 1, for 4 days and the expression of platelet-associated antigen on the cell surface was determined by flow cytometry (Coulter) using FITC-labeled Plt-1 antibody (Coulter). The medium containing no Compound 1 was used as a solvent control.
For the analysis of cell surface antigen, 1×10^6 cells/100 μl of CFIK cells were taken into a tube (Fischer) and reacted with 5 μl of FITC-labeled Plt-1 antibody at 4° C. for 30 minutes. The reaction mixture was washed three times with phosphate buffer containing 0.1% bovine serum albumin and determined for the percentage positive cells and fluorescence intensity.
The above-mentioned Plt-1 antibody (Coulter) is an antibody recognizing the platelet-associated antigen, glycoprotein IIb/IIIa and has been reported to increase with differentiation or maturation of CMK cells [Komatsu, N., et al., Blood, 74(1), 42-48 (1989)].

[3] = test system: Reverse transcriptase; assay: Antiretrovirus activity test: reverse transcriptase activity of virus from culture supernatant; type: cell-based, HIV; details: for Reverse transcriptase activity (cpm): control 1316
Description: (§1) Human transformed normal T cells (MT-4) [Nagumo, T. and Hoshino, H., Jpn. J. Cancer Res. 79, 9-11 (1988)] were used to prepare a suspension of 2×10^5 cells/ml in RPMI-1640 medium (Gibco) supplemented 10% FCS (Gibco).
(§2) Compound 1 was dissolved in hydrochloric acid, diluted in the same medium as above, neutralized with 2N NaOH and adjusted to concentrations of 1 μg/ml, 10 μg/ml, 30 μg/ml and 100 μg/ml.
(§3) The cells prepared in (a) above and the test compound (final concentration: 1 μg/ml, 10 μg/ml, 30 μg/ml or 100 μg/ml) prepared in (b) above were placed in the wells of a 12-well culture plate (Costar). Then, 50 μl/well of HIV suspension was added to infect the cells in each well, followed by 3-day incubation at 37° C. in a 5% carbon dioxide incubator. As a control, the medium without addition of the test compound was used. After completion of incubation, the cell suspension in each well was taken and viable cells were counted.
The cell suspension in each well was then centrifuged (1500 rpm×5 min) and 750 μl of culture supernatant was obtained.
The culture supernatant, 750 μ, obtained above was placed in an Eppendorf tube (1.8 ml) and 4 M NaCl and PEG-6000 (Sigma) were added. The mixture was allowed to react at 0° C. for 2 hours to precipitate the virus and the virus was harvested by centrifugation (15000 rpm×20 min). To this virus pellet were added solution 1 [50% glycerol (Wako Pure Chemical), 25 mM Tris-HCl (pH 7.5), 50 mM KCl 0.025% Triton X-100 (Sigma) and 5 mM DTT (Sigma)] and solution II [0.9% Triton X-100 (Sigma) and 1.5M KCl] for lysis at 0° C. for 30 min. To the resultant 10-μl virus solution were added 5 mg/ml bovine serum albumin (BSA, Sigma), 1 M Tris-HCl, 100 mM DTT (Sigma), 1M KCl, 10 mM Poly A (Sigma), 0.15 mM TTP (Sigma), 200 mM MgCl2, 0.15 mM Oligo(dT) (NEN) and [^3 H]-TTP (NEN) and the mixture was allowed to react at 37° C. for 1 hour. The reaction was then stopped by placing the mixture in ice and the whole amount was spotted on a membrane filter (DE-81 Filter, Whatman) and dried. After drying, the filter was washed three times with 0.5 M Na2 HPO4 and rinsed in ethanol and dried. The radioactivity of [^3 H]-TTP taken into DNA on the membrane was counted with a liquid scintillation counter to determine reverse transcriptase activity (unit, cpm).

[4] = test system: Human transformed normal T cells (MT-4), HIV-infected; assay: Antiretrovirus activity test: viable HIV-infected MT-4 cells; type: cell-based; details: for Number of HIV-infected cells: 3 days, control 105
Description: as §1, §2, §3

Q: Which results are given for `COc1ccc(C(=O)N2CCN(c3ccc4c(c3)CCC(=O)N4)CC2)cc1OC` [Compound 1, 6-[4-(3,4-Dimethoxybenzoyl)-1-piperazinyl]-3,4-dihydrocarbostyril]?
A: Number of ATLV-infected cells ([1]; 1 μg/ml): 0.6 ×10^5; Number of ATLV-infected cells ([1]; 10 μg/ml): 0.2 ×10^5; Number of ATLV-infected cells ([1]; 30 μg/ml): 3.3 ×10^5; Growth inhibition of ATLV-infected cells (in words) ([1]; at least 1 μg/ml): potent inhibitory effect on the growth of ATLV-infected cells; Change in percentage of Plt-1 positive cells (in words) [2]: no change in the percentage of positive cells; Cell count ([2]; 4 days, solvent control 5.8): 3.2 10^5 /ml; Plt-1 percentage positive cells (%) ([2]; 4 days, solvent control 96.1): 96.5%; activity at 30 µg/mL ([2]; Homo sapiens, CMK, 96 h, 4 days, solvent control 100, read-out: Plt-1 mean fluorescence intensity (%)): 192%; fold induction at 30 µg/mL ([2]; Homo sapiens, CMK, read-out: Increase in expression of platelet-associated antigen): 2; Reverse transcriptase activity (cpm) ([3]; 1 μg/ml): 1423 cpm; Reverse transcriptase activity (cpm) ([3]; 10 μg/ml): 1494 cpm; Inhibition of reverse transcriptase activity (in words) ([3]; 30 μg/ml and 100 μg/ml): inhibits reverse transcriptase activity remarkably; Reverse transcriptase activity (cpm) ([3]; 30 μg/ml): 372 cpm; Reverse transcriptase activity (cpm) ([3]; 100 μg/ml): 898 cpm; Inhibition of HIV-infected cell growth (in words) [4]: inhibits cell growth; Number of HIV-infected cells ([4]; 1 μg/ml): 100 ×10^4; Number of HIV-infected cells ([4]; 10 μg/ml): 88 ×10^4; Number of HIV-infected cells ([4]; 30 μg/ml): 78 ×10^4; Number of HIV-infected cells ([4]; 100 μg/ml): 85 ×10^4
